# Test system: puncture-induced IVDD rat model
# Assay: In vivo fluorescence imaging of intervertebral disc degeneration
# Set-up: species or system Sprague-Dawley rat
# Conditions: intradiscal injection, 0, 1, 2, 4 weeks after puncture
# Experimental: and signals were collected from 530 to 610 nm.
# Chondrocytes spheroid cultivation
# Chondrocytes were isolated from articular cartilage and resuspended in 1mL DMEM/F12 medium containing 10 μM ITS-A. A total of […] were counted and transferred into centrifuge tubes. The cells were incubated in these tubes with half of the medium changed periodically.
# Intracellular imaging in chondrocytes and 3D cell spheroids
# The chondrocytes or 3D cell spheroids were seeded in dishes and cultured overnight. Subsequently, the cells or spheroids were incubated with H2O2 for 30, 60 and 90 minutes. Afterward, the cells were further incubated in medium containing 5 μM FPy1 for 1 hour. Fluorescence imaging was then performed with an excitation of 514 nm, and signals were […]
# Flow cytometry assays in THP-1 cells
# The flow cytometry assays were performed to evaluate the response of FPy1 in THP-1 cells. THP-1 cells were seeded in 6-well plates at a density of 10^5 cells per well and cultured overnight. […] The results were analyzed with using FlowJo […]
# Fixed cells or tissue sections were washed with PBS, permeabilized with 0.2 % Triton X-100 (Sigma–Aldrich) for 20 minutes, and blocked with 5 % bovine serum albumin for 1 hour at 37 °C. […] Staining results were examined under a fluorescence microscope (Olympus, IX83-FV3000) and quantified using ImageJ (Bethesda, MD, V1.8.0, NIH). […]
substance,measurement,setting,value
"–FLTDG– [FPy1, RhoB donor, hNR quencher]",in vivo fluorescence at puncture site,"Co5/6, Co6/7, Co7/8",significant enhancement of fluorescence at the corresponding areas
same,differentiation of IVDD stages by fluorescence intensity,,could significantly differentiate the four different stages of IVDD

# Reference: article PMC12598616, “Design and optimization of caspase-1-responsive fluorescent probes for pyroptosis imaging and anti-pyroptosis drug screening” (Chemical Science, 2025)
